Assay results as given in US11447466B2, “Substituted indole compounds useful as inhibitors of TLR7/8/9” (BRISTOL-MYERS SQUIBB COMPANY, priority 2017, dated 2022).

What was measured:
Type in all cases: cell-based
[1] = target: T1, human TLR7 (Homo sapiens, UniProt Q9NYK1); assay: TLR7 inhibition reporter assay (HEK-Blue SEAP reporter, gardiquimod stimulation); settings: HEK-Blue cells overexpressing human TLR7, SEAP reporter, gardiquimod 7.5 μM, 22 hour incubation
T1 construct: host or cells: HEK-Blue cells
T1 sequence (Q9NYK1 27-1049): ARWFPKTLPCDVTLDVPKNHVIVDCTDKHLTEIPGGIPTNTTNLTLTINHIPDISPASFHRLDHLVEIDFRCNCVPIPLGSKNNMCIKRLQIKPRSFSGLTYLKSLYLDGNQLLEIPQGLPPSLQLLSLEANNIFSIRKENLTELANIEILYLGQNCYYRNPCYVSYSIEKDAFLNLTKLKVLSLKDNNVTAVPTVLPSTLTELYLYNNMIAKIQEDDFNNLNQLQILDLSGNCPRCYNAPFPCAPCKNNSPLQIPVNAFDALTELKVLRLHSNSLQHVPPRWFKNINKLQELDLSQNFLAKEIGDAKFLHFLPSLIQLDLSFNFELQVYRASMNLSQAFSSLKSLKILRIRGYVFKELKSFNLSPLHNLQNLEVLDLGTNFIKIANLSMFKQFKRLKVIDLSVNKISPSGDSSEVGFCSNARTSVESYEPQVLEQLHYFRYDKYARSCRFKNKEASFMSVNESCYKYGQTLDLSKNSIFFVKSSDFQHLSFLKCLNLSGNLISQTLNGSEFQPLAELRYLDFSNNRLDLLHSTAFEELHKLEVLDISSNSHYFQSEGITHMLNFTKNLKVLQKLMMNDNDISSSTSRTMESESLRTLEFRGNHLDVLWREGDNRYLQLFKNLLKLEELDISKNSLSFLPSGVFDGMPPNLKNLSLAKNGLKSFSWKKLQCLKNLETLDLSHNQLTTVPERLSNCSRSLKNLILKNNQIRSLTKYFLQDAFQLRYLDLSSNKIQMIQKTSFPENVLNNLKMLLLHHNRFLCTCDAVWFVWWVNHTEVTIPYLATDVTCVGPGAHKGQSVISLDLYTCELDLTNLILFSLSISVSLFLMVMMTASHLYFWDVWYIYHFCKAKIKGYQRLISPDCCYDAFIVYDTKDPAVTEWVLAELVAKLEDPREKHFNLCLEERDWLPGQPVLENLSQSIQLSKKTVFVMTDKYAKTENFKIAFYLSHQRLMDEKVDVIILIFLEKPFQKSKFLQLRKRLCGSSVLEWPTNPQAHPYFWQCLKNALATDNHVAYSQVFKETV
In short: (§1)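 Compound treatment: 30 min, RT, 0.05 nM–50 μM final. Agonist: TLR7 gardiquimod 7.5 μM; TLR8 R848 15.9 μM; TLR9 ODN2006 5 nM. Incubation 22 h, 37 °C, 5% CO2. Readout SEAP, HEK-Blue Detection.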

[2] = target: T2, human TLR8 (Homo sapiens, UniProt Q9NR97); assay: TLR8 inhibition reporter assay (HEK-Blue SEAP reporter, R848 stimulation); settings: HEK-Blue cells overexpressing human TLR8, SEAP reporter, R848 15.9 μM, 22 hour incubation
T2 construct: host or cells: HEK-Blue cells
T2 sequence (Q9NR97 27-1041): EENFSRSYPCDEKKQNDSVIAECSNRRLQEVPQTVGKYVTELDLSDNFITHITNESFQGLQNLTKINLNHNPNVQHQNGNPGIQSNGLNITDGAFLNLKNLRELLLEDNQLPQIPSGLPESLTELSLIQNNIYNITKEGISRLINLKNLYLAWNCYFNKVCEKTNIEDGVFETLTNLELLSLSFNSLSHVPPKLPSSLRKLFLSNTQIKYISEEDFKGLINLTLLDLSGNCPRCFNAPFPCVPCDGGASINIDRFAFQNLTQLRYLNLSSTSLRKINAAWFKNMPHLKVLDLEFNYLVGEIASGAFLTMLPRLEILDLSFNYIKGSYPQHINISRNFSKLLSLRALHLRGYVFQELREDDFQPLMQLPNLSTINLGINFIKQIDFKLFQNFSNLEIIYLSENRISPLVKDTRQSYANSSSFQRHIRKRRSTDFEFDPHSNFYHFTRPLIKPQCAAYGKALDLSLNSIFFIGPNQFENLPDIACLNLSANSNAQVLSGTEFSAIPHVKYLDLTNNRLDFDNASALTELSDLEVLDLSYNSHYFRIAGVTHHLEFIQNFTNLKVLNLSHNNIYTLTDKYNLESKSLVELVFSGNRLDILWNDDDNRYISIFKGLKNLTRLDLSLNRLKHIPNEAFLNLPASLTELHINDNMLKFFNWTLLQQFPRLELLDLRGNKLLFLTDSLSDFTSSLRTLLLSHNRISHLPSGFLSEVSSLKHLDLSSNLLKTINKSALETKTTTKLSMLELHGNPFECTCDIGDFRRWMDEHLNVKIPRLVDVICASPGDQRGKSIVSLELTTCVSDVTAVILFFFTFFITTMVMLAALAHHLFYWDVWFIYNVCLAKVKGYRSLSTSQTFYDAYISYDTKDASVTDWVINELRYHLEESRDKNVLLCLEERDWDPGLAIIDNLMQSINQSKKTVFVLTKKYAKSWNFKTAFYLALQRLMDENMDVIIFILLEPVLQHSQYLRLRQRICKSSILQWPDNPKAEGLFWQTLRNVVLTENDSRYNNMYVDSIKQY
In short: as §1

[3] = target: T3, human TLR9 (Homo sapiens, UniProt Q9NR96); assay: TLR9 inhibition reporter assay (HEK-Blue SEAP reporter, ODN2006 stimulation); settings: HEK-Blue cells overexpressing human TLR9, SEAP reporter, ODN2006 5 nM, 22 hour incubation
T3 construct: host or cells: HEK-Blue cells
T3 sequence (Q9NR96 26-1032): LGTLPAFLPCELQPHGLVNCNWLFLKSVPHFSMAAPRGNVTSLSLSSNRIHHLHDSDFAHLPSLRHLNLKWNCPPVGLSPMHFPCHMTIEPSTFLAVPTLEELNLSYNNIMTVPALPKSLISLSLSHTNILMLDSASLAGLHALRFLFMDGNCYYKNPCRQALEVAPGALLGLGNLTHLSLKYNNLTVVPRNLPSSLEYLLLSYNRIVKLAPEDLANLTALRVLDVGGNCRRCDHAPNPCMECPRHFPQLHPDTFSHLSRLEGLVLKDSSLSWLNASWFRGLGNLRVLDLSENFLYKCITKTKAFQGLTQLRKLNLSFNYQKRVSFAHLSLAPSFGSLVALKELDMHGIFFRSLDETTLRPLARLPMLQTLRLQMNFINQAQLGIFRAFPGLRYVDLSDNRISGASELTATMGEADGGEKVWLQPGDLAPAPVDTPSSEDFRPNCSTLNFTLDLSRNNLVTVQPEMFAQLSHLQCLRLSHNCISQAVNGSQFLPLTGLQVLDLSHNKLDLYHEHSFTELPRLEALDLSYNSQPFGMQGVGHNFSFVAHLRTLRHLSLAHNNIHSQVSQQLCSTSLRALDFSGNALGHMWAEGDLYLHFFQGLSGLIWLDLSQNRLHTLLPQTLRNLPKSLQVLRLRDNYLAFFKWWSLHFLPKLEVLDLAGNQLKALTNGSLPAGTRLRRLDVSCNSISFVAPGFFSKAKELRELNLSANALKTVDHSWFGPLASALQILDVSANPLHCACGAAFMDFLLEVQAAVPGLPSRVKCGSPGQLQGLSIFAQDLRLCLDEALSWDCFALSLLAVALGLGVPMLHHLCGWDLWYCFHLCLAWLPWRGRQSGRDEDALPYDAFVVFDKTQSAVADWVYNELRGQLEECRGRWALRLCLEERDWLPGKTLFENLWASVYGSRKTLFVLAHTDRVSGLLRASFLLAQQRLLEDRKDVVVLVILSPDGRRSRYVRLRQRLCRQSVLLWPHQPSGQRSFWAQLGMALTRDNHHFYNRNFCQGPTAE
In short: as §1

Row | SMILES | IC50 [1] | IC50 [2] | IC50 [3]
1 | Cc1c(-c2[nH]c3ccc(C4CCN(CC(C)(C)O)CC4)cc3c2C(C)C)cn(C)c(=O)c1Cl [Example 309, 3-chloro-5-(5-(1-(2-hydroxy-2-methylpropyl)piperidin-4-yl)-3-isopropyl-1H-indol-2-yl)-1,4-dimethylpyridin-2(1H)-one] | 13.7 nM | 5.3 nM | 8510 nM
2 | CNC(=O)CN1CCC(c2ccc3[nH]c(-c4cn(C)c(=O)c(C#N)c4C)c(C(C)C)c3c2)CC1 [Example 146, 2-(4-(2-(5-cyano-1,4-dimethyl-6-oxo-1,6-dihydropyridin-3-yl)-3-isopropyl-1H-indol-5-yl)piperidin-1-yl)-N-methylacetamide] | 38.8 nM | 4.5 nM | 6990 nM
3 | Cc1cc(-c2[nH]c3ccc(C4CCN(CCCO)CC4)cc3c2C(C)C)cn(C)c1=O [Example 85, 5-(5-(1-(3-hydroxypropyl)piperidin-4-yl)-3-isopropyl-1H-indol-2-yl)-1,3-dimethylpyridin-2(1H)-one] | 2.2 nM | 4.6 nM | 8450 nM
4 | COCCn1cc(-c2[nH]c3ccc(C4CCN(CC(C)C)CC4)cc3c2C(C)C)cc(C)c1=O [Example 109, 5-(5-(1-isobutylpiperidin-4-yl)-3-isopropyl-1H-indol-2-yl)-1-(2-methoxyethyl)-3-methylpyridin-2(1H)-one] | 13 nM | 9.7 nM | 5310 nM
5 | Cc1cc(-c2[nH]c3ccc(C4CCN(CCCC(F)(F)F)CC4)cc3c2C(C)C)cn(CC(C)C)c1=O [Example 110, 1-isobutyl-5-(3-isopropyl-5-(1-(4,4,4-trifluorobutyl)piperidin-4-yl)-1H-indol-2-yl)-3-methylpyridin-2(1H)-one] | 56.1 nM | 163 nM | 5260 nM
6 | Cc1cc(-c2[nH]c3ccc(C4CCN(CCC(N)=O)CC4)cc3c2C(C)C)cn(C)c1=O [Example 82, 3-(4-(2-(1,5-dimethyl-6-oxo-1,6-dihydropyridin-3-yl)-3-isopropyl-1H-indol-5-yl)piperidin-1-yl)propanamide] | 9.5 nM | 11.9 nM | 799 nM
7 | CCCN1CCC(c2ccc3[nH]c(-c4cc(-c5cccc(OC)c5)c(=O)n(C)c4)c(C(C)C)c3c2)CC1 [Example 340, 5-(3-isopropyl-5-(1-propylpiperidin-4-yl)-1H-indol-2-yl)-3-(3-methoxyphenyl)-1-methylpyridin-2(1H)-one] | 4.5 nM | 16.6 nM | 1210 nM
8 | Cc1c(-c2[nH]c3ccc(C4CCN(C(C)(C)C(N)=O)CC4)cc3c2C(C)C)cn(C)c(=O)c1Cl [Example 154, 2-(4-(2-(5-chloro-1,4-dimethyl-6-oxo-1,6-dihydropyridin-3-yl)-3-isopropyl-1H-indol-5-yl)piperidin-1-yl)-2-methylpropanamide] | 4.6 nM | 26.6 nM | 13800 nM
9 | Cc1cc(-c2[nH]c3ccc(C4CCNCC4)cc3c2C(C)C)cn(C2CCOC2)c1=O (stereo not drawn) [Example 42, 5-(3-isopropyl-5-(piperidin-4-yl)-1H-indol-2-yl)-3-methyl-1-(tetrahydrofuran-3-yl)pyridin-2(1H)-one] | 40.9 nM | 134 nM | 6710 nM
10 | CC(C)c1c(-c2ccc(=O)n(C)c2)[nH]c2ccc(C3CCN(C4COC4)CC3)cc12 [Example 179, 5-(3-isopropyl-5-(1-(oxetan-3-yl)piperidin-4-yl)-1H-indol-2-yl)-1-methylpyridin-2(1H)-one] | 95.1 nM | 28.8 nM | 3930 nM
11 | COc1cc(-c2[nH]c3ccc(C4CCN(CC(=O)N(C)C)CC4)cc3c2C(C)C)c(C)n(C)c1=O [Example 143, 2-(4-(3-isopropyl-2-(5-methoxy-1,2-dimethyl-6-oxo-1,6-dihydropyridin-3-yl)-1H-indol-5-yl)piperidin-1-yl)-N,N-dimethylacetamide] | 413 nM | 99.7 nM | 2720 nM
12 | Cc1c(-c2[nH]c3ccc(C4CCN(C5CCOCC5)CC4)cc3c2C(C)C)cn(C)c(=O)c1C [Example 206, 5-(3-isopropyl-5-(1-(tetrahydro-2H-pyran-4-yl)piperidin-4-yl)-1H-indol-2-yl)-1,3,4-trimethylpyridin-2(1H)-one] | 18.9 nM | 2.6 nM | 4490 nM
13 | Cc1c(-c2[nH]c3ccc(C4CCN(CC(C)(C)O)CC4)cc3c2C(C)C)cc(C#N)c(=O)n1C [Example 321, 5-(5-(1-(2-hydroxy-2-methylpropyl)piperidin-4-yl)-3-isopropyl-1H-indol-2-yl)-1,6-dimethyl-2-oxo-1,2-dihydropyridine-3-carbonitrile] | 36.7 nM | 1.6 nM | 4370 nM
